The source of these data is patent US20120024744A1, “Soil-related and/or Crop-related Applications for Chlorine Dioxide” (DHARMA IP, LLC, priority 2010, published 2012).

SMILES strings stand for the structures.

This series is described as follows: Enhanced solubility of beta-cyclodextrin in water containing ClO2. The note with it: 100 g slurries, 5% (w/w) in 8000 ppm ClO2 vs ultrapure water, 200 rpm, 3 days. The series is classed as physicochemical.

As to `OC[C@H]1O[C@@H]2O[C@H]3[C@H](O)[C@@H](O)[C@@H](O[C@H]4[C@H](O)[C@@H](O)[C@@H](O[C@H]5[C@H](O)[C@@H](O)[C@@H](O[C@H]6[C@H](O)[C@@H](O)[C@@H](O[C@H]7[C@H](O)[C@@H](O)[C@@H](O[C@H]8[C@H](O)[C@@H](O)[C@@H](O[C@H]1[C@H](O)[C@H]2O)O[C@@H]8CO)O[C@@H]7CO)O[C@@H]6CO)O[C@@H]5CO)O[C@@H]4CO)O[C@@H]3CO` [beta-cyclodextrin], the “weight of dried undissolved beta-cyclodextrin, ClO2 containing slurry less than control slurry” value was 0.32 g.
